Assay results as given in patent US11779565B2, “Small organic molecules for use in the treatment of neuroinflammatory disorders” (THE MEDICAL RESEARCH, INFRASTRUCTURE AND HEALTH SERVICES …, priority 2017, dated 2023).

Experiments:
RR-EAE mice = experiment: De novo expression of doublecortin (BrdU+DCX+ cells) in SVZ and SGZ of RR-EAE mice; type: in vivo
Source text: FIGS. 10A-10B—The effect of SM1, SM7, SM9 and SM6 on de novo expression of neuroblasts marker doublecortin in the SVZ. FIG. 10A—Immunofluorescence images showing the labeling of BrdU and doublecortin (DCX) in the SVZ. Images were obtained using Zeiss 710 confocal microscope, coronal sections. LV, lateral ventricle, SVZ, subventricular zone. Scale bar for images: a, c, e, g, i, k, m, o=100 μm (magnification×10), and images: b, d, f, h, j, 1, n, p=20 μm (magnification×63). FIG. 10B: Quantification of BrdU^+ DOC^+ cells in the SVZ. Analysis was performed using image J software on 3 sections from each mouse (3 mice from each group, total n=9). Values are given as mean±SEM and the results of Student's t-test are represented as *p<0.05.
FIGS. 11A-11B—The effect of SM1, SM7, SM9 and SM6 on de novo expression of doublecortin in the SGZ. FIG. 11A: are immunohistochemical images showing the labeling of BrdU^+DCX^+ cells in the SGZ. Images were obtained using Olympus 8.1 microscope (magnification×10). FIG. 11B: Quantification of BrdU^+DCX^+ cells in the SGZ. Analysis was performed using image J software on 3 sections from each mouse (3 mice from each group, total n=9). Values are given as mean±SEM and the results of Student's t-test are represented as *p<0.05.
RR-EAE induced mice were intraperitoneally injected with 250 μg/mouse (Low-L) or 500 μg/mouse (High-H) of the small molecules SM1, SM7, SM9, SM6, or the corresponding vehicle. The SMs were injected each day starting on day 9 post immunization for 30 days. For immunohistochemical analysis, 3 mice of each group were intraperitoneally injected daily with bromo-2′-deoxyuridine (BrdU) starting from day 9 post immunization for 8 following days.
Next, the amount of BrdU DCX cells in the SGZ of mice was evaluated. FIGS. 11A-11B show immunohistochemical labeling of BrdU DCX cells in mice with EAE after treatment with the SMs or with vehicle.

ATDC5 cells = experiment: Cell viability (CellTiter-Glo) in the ATDC5 HTS bioassay; type: cell-based; settings: library screening
Procedure: Poly-L-lysine (Sigma-Aldrich) was added to 384-well plates and was removed after 30 min of incubation at RT. An assay medium containing DMEM/F12, 2% FBS, 100 units/ml penicillin, […] streptomycin (Biological industries) was added to each well. […] ATDC5 cells (Sigma-Aldrich) were harvested, re-suspended in assay medium and added to a final concentration of 2000 cells/well. Finally, heparin (Sigma-Aldrich) was added to a final concentration of 2 μg/ml. The cells were incubated for 48 hours at 37° C. with 5% CO2 in a humidified chamber in the presence or absence of potential small molecule inhibitors of BPM-2. After incubation, ALP levels and cell viability were determined using a completely automated protocol. Cells were washed with PBS, lysed using a lysis buffer containing 0.2% Triton X-100 in PBS supplemented with a protease inhibitor cocktail (Sigma-Aldrich) and incubated for 25 min at RT. ALP level was then determined by addition of CDP-Star® chemiluminescent substrate (Sigma-Aldrich) and measurement of luminescence after incubation for 25 min at RT in the dark. Cell viability was finally determined by addition of CellTiter-Glo® reagent (Biological Industries) and luminescence measurement after 10 min of incubation.
An ATDC5 cell based assay for assessing structure-function relationship of BMP-2 and BMP receptor IA was originally described in Keller et al (Nature Structural & Molecular Biology 2004 11, 481-488). In order to screen a large volume of potential therapeutic agents the ATDC5 cell based bioassay for detecting BMP inhibition was adapted for use in high throughput screening. The bioassay is based on the stimulation of alkaline phosphatase (ALP) production in mouse ATDC5 cells by administration of BMP-2 and heparin, and measurement of ALP levels in the presence of the potential inhibitors. The assay was characterized by the following features: • (a) optimal conditions for HTS automated instruments were found so as to obtain a satisfying gap (i.e. positive Z-prime, above 0.5) between ALP production in the presence of BMP-2, to ALP production in the absence of BMP-2 (no stimulation). • (b) a sensitive method was designed for ALP determination for HTS—namely, the use of CDP-Star® chemiluminescent substrate and luminescence measurement. • (c) both ALP production and cells' viability were measured simultaneously. This was achieved by using CellTiter-Glo® Luminescent Cell Viability Assay for assessing the cells' viability after the luminescent signal by CDP-Star® has faded. […]
A library of small molecules (SM) was screened using the High Throughput Screening bioassay described above. […] The ALP levels and cell viability are shown in FIG. 2 as a percentage of the ALP or viability luminescence levels in the presence of BMP-2 without the SM. […]

[1] = high dose (H) 500 μg/mouse i.p. daily from day 9 for 30 days
[2] = low dose (L) 250 μg/mouse i.p. daily from day 9 for 30 days
[3] = low dose (L) 250 μg/mouse i.p. daily

| Structure (SMILES) | BrdU+DCX+ cells in the SVZ vs. vehicle (RR-EAE mice; [1]) | BrdU+DCX+ cells in the SVZ vs. vehicle (RR-EAE mice; [2]) | cytotoxicity in mouse ATDC5 cells (ATDC5 cells) | BrdU+DCX+ cells in the SGZ vs. vehicle (RR-EAE mice; [3]) | BrdU+DCX+ cells in the SGZ vs. vehicle (RR-EAE mice; high dose (H) 500 μg/mouse i.p. daily) |
| --- | --- | --- | --- | --- | --- |
| COC(=O)c1sccc1N/N=C(\C#N)S(=O)(=O)c1cccs1 [SM1, Methyl 3-[(2E)-2-[cyano(thiophen-2-ylsulfonyl)methylidene]hydrazinyl]thiophene-2-carboxylate] | trend for increased induction | trend for increased induction | without leading to cytotoxicity | – | – |
| O=C(Nc1cccc(C(F)(F)F)c1)c1ccc([N+](=O)[O-])o1 [SM6, N2-[3-(trifluoromethyl)phenyl)-5-nitro-2-furamide] | trend for increased induction | – | without leading to cytotoxicity | trend for increased | – |
| N#Cc1c(O)nsc1Nc1ccccc1C(F)(F)F [SM7, 3-hydroxy-5-[2-(trifluoromethyl)aniline]isothiazole-4-carbonitrile] | – | – | without leading to cytotoxicity | trend for increased | – |
| CS(=O)(=O)c1noc(-c2ccc(Cl)cc2)c1C#N [SM9, 5-(4-chlorophenyl)-3-methylsulfonyl-1,2-oxazole-4-carbonitrile] | trend for increased induction | significant increase | without leading to cytotoxicity | trend for increased | significant increased induction |
